Results on two compounds are retold here after patent EP2547369B1, “A NA[…] MICELLE FORMED BY AN A[…]-COPOLYMER AND ENCAPSULATING A […]” (King Saud University, priority 2010, dated 2011).

The conditions of series [1]: cited from earlier work.
The subject of series [2] is Jurkat human leukemia cell line. The experiment in a line: MTT assay, cytotoxicity of free and micelle-encapsulated Gd(III) complex on Jurkat. To be noted: 3 days; for cytotoxicity: 50 µM. It is filed as cell-based. The text has this:
(§1) The present inventors also evaluated the cytotoxicity of Gd(III) complexes using the MTT assay, another method measuring cell viability, on the Jurkat and MCF-7 cell lines (Figure 9 and 11). […] In order to estimate the concentration of Gd (III) complexes able to reduce cell viability by 50% (IC50), the present inventors plotted a linear regression line for each used cell line (Figure 10). […] It appears thus that Jurkat cells are slightly more susceptible to Gd (III) complexes than MCF-7 cells.
To compare the cytotoxicity of free and micelle-encapsulated Gd(III) complexes and to verify if the time of dialysis influences polymeric micelle cytotoxicity, the present inventors performed again the MTT assay on Jurkat cells. The cells were treated with incremental concentrations of the free and micelle-encapsulated Gd(III) complexes.
Two different cell lines were used to assess Gd(III) cytotoxicity: Jurkat, and MCF-7. Jurkat cells were seeded on two 96-well culture plates (BD Falcon) (50 µl in each well with a concentration of 4x10^5 cells/mL). Different concentrations (5 µM, 10 µM, 15 µM and 20 µM) of Gd(III) complex solution, diluted in 50 µl of RPMI-1640, were used. Each test was repeated eight times. As a negative control, cells were treated with ethanol (96%) (the same amount of ethanol present in the cells treated with a highest concentration of Gd(III) complex). Incubation was carried out for 3 days. In this experiment the toxicity of Gd(III) complex was evaluated by the 3-(4, 5-dimethylthiazol-2-yl)-2, 5-diphenyl tetrazolium bromide (MTT) assay. At the end of each incubation time 10 µl of 5 mg/mL MTT solution (AppliChem) were added to each well followed by further incubation for 4h. Then, 100 µl of 0.04 N HCL in isopropanol (BDH Prolabo) were added to the wells and formazan crystals were allowed to solubilize for 1 hour at room temperature. The formazan concentration was quantified using a spectrophotometer (Tecan Infinite M200 monochromator-based multi-function microplate reader) by measuring the absorbance at 570 nm and 630 nm. The final optical density (OD) obtained from formazan formation was calculated with the following formula: OD=L(570nm)-L(630nm). The toxicity was assessed by calculating the % of cell survival in relation to the control untreated group. […]
To assess Gd(III) complex-loaded polymeric micelle cytoxicity and to compare it with the toxicity from free Gd(III) complex, Jurkat cells were seeded on a 96-well culture plate (50 µl in each well with a concentration of 4x10^5 cells/mL). […] The cytotoxicity of Gd(III) complex and Gd(III) complex-loaded polymeric micelles was evaluated by the MTT assay following the procedure mentioned on 8.2.

In series [3] the test system is MCF-7 breast cancer cell line. The experiment in a line: MTT assay, cytotoxicity of Gd(III) complex on MCF-7. Format: cell-based, human.
Description: as §1
Two different cell lines were used to assess Gd(III) cytotoxicity: Jurkat, and MCF-7. Jurkat cells were seeded on two 96-well culture plates (BD Falcon) (50 µl in each well with a concentration of 4x10^5 cells/mL). […] Each test was repeated eight times. As a negative control, cells were treated with ethanol (96%) (the same amount of ethanol present in the cells treated with a highest concentration of Gd(III) complex). Incubation was carried out for 3 days. In this experiment the toxicity of Gd(III) complex was evaluated by the 3-(4, 5-dimethylthiazol-2-yl)-2, 5-diphenyl tetrazolium bromide (MTT) assay. At the end of each incubation time 10 µl of 5 mg/mL MTT solution (AppliChem) were added to each well followed by further incubation for 4h. Then, 100 µl of 0.04 N HCL in isopropanol (BDH Prolabo) were added to the wells and formazan crystals were allowed to solubilize for 1 hour at room temperature. The formazan concentration was quantified using a spectrophotometer (Tecan Infinite M200 monochromator-based multi-function microplate reader) by measuring the absorbance at 570 nm and 630 nm. The final optical density (OD) obtained from formazan formation was calculated with the following formula: OD=L(570nm)-L(630nm). The toxicity was assessed by calculating the % of cell survival in relation to the control untreated group. The procedure described above was repeated for the MCF-7 cell line, after being seeded at 5 × 10^3 cells per each well and allowed to attach for 24h.
(Tetrazolium assays rely on reduction of a dye to a coloured formazan, in cell work by metabolically active cells.)

The next series has as its system Jurkat cell line. As to the kind of experiment: Cell count with Trypan Blue, cytotoxicity of Gd(III) complex. It is filed as cell-based, human. The settings on record: 3 days. The procedure: The MCF-7, MDA-MB-468, HeLa, 293T; ARPE19; D407 and S17 adherent cell lines were maintained in DMEM medium (LONZA) supplemented with 10% fetal bovine serum (FBS) (PAA), glutamine (200 mM), penicillin (10000 units/mL) and streptomycin (10000 µg/mL) from LONZA. All cell culture incubations were performed at 37°C under humidified atmosphere of 5% CO2. The Jurkat and DND41 suspension cell lines were maintained in RPMI 1640 medium (LONZA) supplemented as above. Cells were thawed at 37°C and pipetted into 10 mL of prewarmed medium. The cells were centrifuged at 300 g for 5 minutes to remove dimethylsulfoxide (DMSO) (Merck). Then, the supernatant was discarded and the pellet resuspended in 2 mL of fresh medium. The cells were placed into T25 flasks (Nunc) and 8 mL of medium was added for a final volume of 10 mL. The medium was changed every 2 days. […] The hemocytometer Neubauer chamber (Hausser Scientific) was filled with the cell suspension and uncolored viable cells were counted on an inverted light microscope (Leica DM IL). The cells were counted in four 1 mm^2 squares. The equation to calculate the cell number per cubic millimeter is the following: Number of cells counted per square millimeter × dilution used × 10. […]

As to `Cc1ccc2ccc3cccc4ccc1c2c34` [1-methylpyrene], the “solubility in aqueous media” value in series [1] is recorded as “ca. 10^-7 M”.
For “tetraaquodichloro(4,4'-ditBu-2,2'-bipyridine) gadolinium(III) chloride [Gd(III) complexes]”, the “toxicity (number of viable cells)” value was “toxic” in series [2] (10 µM) and “toxic” in series [3] (10 µM, MTT, 3 days, MCF-7). Also, the cytotoxicity result in series [2] is on record as “kill all cells”; in series [2] (listed as free Gd(III) complexes), “killed almost all cells”. Further, the IC50 in series [2] (from linear regression line, read-out: IC50 (concentration able to reduce cell viability by 50%)) was found to be 10.2 µM; in series [3] (MCF-7, 3 days, MTT, from linear regression line, read-out: IC50 (concentration able to reduce cell viability by 50%)) it was 12.8 µM. The toxicity result in series [3] (50 µM, 3 days, MCF-7 cells as printed) was “overall cell death”. Besides, the results for the “toxicity by cell count” value in the series with Jurkat cell line (10 µM) and in the series on Jurkat cell line (50 µM) were “less toxic” and “very toxic”, respectively.
